Here are results for 2 compounds from ChEMBL document CHEMBL3045175, “Synthesis and Neuromuscular Blocking Activity of 16-Piperidino Epiandrosterone Derivatives” (Med Chem Res, 2005).

The species entered for experiment [1] is Gallus gallus. The experiment in a line: Binding affinity to acetylcholine receptor in isolated Gallus gallus (chicken) biventar cervicis muscle assessed as reduction of twitch response to carbachol after washout.
Experiment [2] is described as follows: (§1) Inhibition of Electrophorus electricus (electric eel) acetylcholinesterase.
A further experiment relates to Electrophorus electricus. The description is as §1.
The species entered for experiment [3] is Gallus gallus. The experiment in a line: Binding affinity to acetylcholine receptor in isolated Gallus gallus (chicken) biventar cervicis muscle assessed as reduction of twitch response to carbachol at 1 uM up to 10 min.
The species named for experiment [4] is Gallus gallus. The experiment can be described thus: Binding affinity to acetylcholine receptor in isolated Gallus gallus (chicken) biventar cervicis muscle assessed as reduction of twitch response to carbachol in presence of neostigmine.
Experiment [5] is filed under the species Gallus gallus. The experiment in a line: Binding affinity to acetylcholine receptor in isolated Gallus gallus (chicken) biventar cervicis muscle assessed as reduction of twitch response to carbachol.
The species entered for experiment [6] is Gallus gallus. The experiment can be described thus: Binding affinity to acetylcholine receptor in isolated Gallus gallus (chicken) biventar cervicis muscle assessed as reduction of twitch response to carbachol at 5 uM up to 10 min.

Molecules are shown by their SMILES. The source made the active and inactive calls. The rule behind the calls is not given here.

Take `CC(=O)O[C@H]1[C@@H](N2CCCCC2)C[C@H]2[C@@H]3CC[C@H]4C[C@@H](N5CCCC5)CC[C@]4(C)[C@H]3CC[C@@]21C`: the outcome in the experiment listed under Gallus gallus [1] and in the experiment listed under Gallus gallus [4] was inactive. In experiment [2], this compound yielded a Ki of 0.98 µM. Also, in the experiment with Electrophorus electricus, the inhibition entry is “Dose-dependent effect”. Further, the outcome in the experiment filed under Gallus gallus [3] was Active. Moreover, the K in the experiment listed under Gallus gallus [5] is 0.2 µM.

As for `C[C@]12CC[C@H](N3CCCC3)C[C@@H]1CC[C@@H]1[C@@H]2CC[C@]2(C)[C@@H](O)[C@@H](N3CCCCC3)C[C@@H]12`, the outcome in the experiment listed under Gallus gallus [6] was Active. The result in the experiment filed under Gallus gallus [1] and in the experiment filed under Gallus gallus [4] was inactive. Affinity in experiment [2] was put at a Ki of 0.62 µM. The inhibition entry with Electrophorus electricus is “Dose-dependent effect”. Also, the K in the experiment listed under Gallus gallus [5] amounted to 0.9 µM.

As a reminder, the Ki is a dissociation constant, usually derived from enzyme kinetics or from competition with a known ligand. A high value points to weaker binding.
